# Patent publication US20090291945A1, “CYSTEINE PROTEASE INHIBITORS” (Teijin Pharma Limited, priority 2008, published 2009)
# Target: T1, cathepsin K (Homo sapiens, UniProt P43235)
# T1 construct: the active enzyme was obtained as the enzyme fraction by using detergent containing lysis buffer; made in house; host or cells: HEK293T (GenHunter Corporation), transient expression; detergent lysate used as enzyme fraction
# T1 sequence (P43235 115-329): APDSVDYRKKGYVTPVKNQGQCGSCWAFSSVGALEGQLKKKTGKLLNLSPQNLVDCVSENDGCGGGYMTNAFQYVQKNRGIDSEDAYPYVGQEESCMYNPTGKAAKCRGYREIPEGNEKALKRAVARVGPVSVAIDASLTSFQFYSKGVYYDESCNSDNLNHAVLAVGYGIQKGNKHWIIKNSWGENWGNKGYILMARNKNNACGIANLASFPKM
# Experiment: Cathepsin K inhibitory activity (fluorescent substrate Z-Leu-Arg-MCA)
# Type: biochemical
# Conditions: enzyme expressed in HEK293T; 15 min preincubation, 30 min reaction at room temperature, pH 5.5; read-out: Activity Intensity (cathepsin K inhibitory activity, pIC50 class) (converted)
# Procedure: Cathepsin K inhibitory activities of the compounds synthesized according to the methods of the above examples were measured.
# Cathepsin K used for evaluation of inhibitory activity was transiently expressed in an animal cell HEK293T (made by GenHunter Corporation) and the active enzyme was obtained as the enzyme fraction by using detergent containing lysis buffer.
# The enzyme solution A was prepared at 2.1 times final concentration by diluting the enzyme fraction with assay buffer (50 mM sodium acetate, 50 mM sodium chloride, 2 mM DTT, pH 5.5). The test compound solutions B were prepared at 50 times final target concentrations by dimethylsulfoxide (DMSO). As a substrate solution C, a solution of a fluorescent substrate, benzyloxycarbonyl-L-leucyl-L-arginyl-4-methyl-coumaryl-7-amide (Z-Leu-Arg-MCA (Peptide Institute Inc.), was prepared at 10 μM by an assay buffer.
# To the enzyme solution A (38.4 μL) were added the test compound solutions B (1.6 μL) and mixed individually. The mixtures were incubated at room temperature for 15 minutes. To the incubated solutions were added the substrate solution C (40 μL) and the mixtures were reacted at room temperature for 30 minutes respectively. The fluorescence intensities of the enzyme reaction solutions were measured at excitation wavelength of 355 nm and measurement wavelength of 460 nm and the enzyme activities were calculated from these fluorescence intensities caused by 7-amino-4-methylcoumarine released. The enzyme activity with using DMSO instead of the test compound solution B was taken as 100% and the inhibitory rates at each concentration of the test compound were calculated. The […] response curve was fitted to the plots. The 50% inhibitory concentration against cathepsin K was calculated from this curve.
# Note that the symbols (+, ++, and +++) in this table represent the inhibitory activity values as below. Here, pIC50 is the value representing a negative logarithm of IC50, (−log10(IC50)). IC50 is a 50% inhibitory concentration.
row,SMILES,IC50 [nM]
1,CC[C@@H](CNc1ccc(N2CCOCC2)cc1)NC(=O)[C@H](CC(C)C)N[C@@H](c1ccccn1)C(F)(F)F [Compound 32],≤ 3.16
2,CC[C@@H](CNc1ccc(N2CCOCC2)cc1)NC(=O)[C@H](CC(C)C)N[C@@H](c1ccc(OC(F)F)cc1)C(F)(F)F [Compound 33],≤ 3.16
3,CC[C@@H](CNc1ccc(N2CCOCC2)cc1)NC(=O)[C@H](CC(C)C)N[C@@H](c1ccc(Cl)cc1)C(F)(F)F [Compound 34],≤ 3.16
4,CC[C@@H](CNc1ccc(N2CCOCC2)cc1)NC(=O)[C@H](CC(C)C)N[C@@H](c1ccc(N(C)C)cc1)C(F)(F)F [Compound 35],≤ 3.16
5,CC[C@@H](CNc1ccc(N2CCOCC2)cc1)NC(=O)[C@H](CC(C)C)N[C@@H](Cc1ccccc1)C(F)(F)F [Compound 37],≤ 3.16
6,CC[C@@H](CNc1ccc(OCCS(C)(=O)=O)cc1OC)NC(=O)[C@H](CC(C)C)N[C@@H](c1ccc(OC)nc1)C(F)(F)F [Compound 38],3.16 to 31.6
7,CC[C@@H](CNc1ccc(OCCS(C)(=O)=O)cc1OC)NC(=O)[C@H](CC(C)C)N[C@@H](c1cccnc1)C(F)(F)F [Compound 39],3.16 to 31.6
8,CC[C@@H](CNc1ccc(OCCS(C)(=O)=O)cc1OC)NC(=O)[C@H](CC(C)C)N[C@@H](c1ccc(S(C)(=O)=O)cc1)C(F)(F)F [Compound 40],3.16 to 31.6
9,CC[C@@H](CNc1ccc(OCCS(C)(=O)=O)cc1OC)NC(=O)[C@H](CC(C)C)N[C@@H](c1ccc(=O)[nH]c1)C(F)(F)F [Compound 41],≤ 3.16
10,CC[C@@H](CNc1ccc(OCCO)cc1OC)NC(=O)[C@H](CC(C)(C)F)N[C@@H](c1ccccc1)C(F)(F)F [Compound 42],≤ 3.16
11,CC[C@@H](CNc1ccc(OC)cc1OC)NC(=O)[C@H](CC(C)C)N[C@@H](c1ccc(=O)n(C)c1)C(F)(F)F [Compound 44],3.16 to 31.6
12,CC[C@@H](CNc1ccc(-c2ccccc2)cc1)NC(=O)[C@H](CC(C)C)N[C@@H](c1ccccc1)C(F)(F)F [Compound 45],31.6 to 10000
13,CC[C@@H](CNc1ccc(-n2cccn2)cc1)NC(=O)[C@H](CC(C)C)N[C@@H](c1ccccc1)C(F)(F)F [Compound 47],31.6 to 10000
14,CC[C@@H](CNc1ccc(-n2cccn2)cc1)NC(=O)[C@H](CC(C)C)N[C@@H](c1ccc(OC)nc1)C(F)(F)F [Compound 48],31.6 to 10000
15,CCOC(=O)C1CCN(c2ccc(NC[C@H](CC)NC(=O)[C@H](CC(C)C)N[C@@H](c3ccccc3)C(F)(F)F)cc2)CC1 [Compound 49],≤ 3.16
16,CCOC(=O)C1CCN(c2ccc(NC[C@H](CC)NC(=O)[C@H](CC(C)C)N[C@@H](c3ccc(OC)nc3)C(F)(F)F)cc2)CC1 [Compound 50],≤ 3.16
17,CC[C@@H](CNc1ccc(N2C[C@@H](C)O[C@@H](C)C2)cc1)NC(=O)[C@H](CC(C)C)N[C@@H](c1ccccc1)C(F)(F)F [Compound 51],≤ 3.16
18,CC[C@@H](CNc1ccc(N2C[C@@H](C)O[C@@H](C)C2)cc1)NC(=O)[C@H](CC(C)C)N[C@@H](c1ccc(OC)nc1)C(F)(F)F [Compound 52],≤ 3.16
19,CC[C@@H](CNc1ccc(N2CCCC2=O)cc1)NC(=O)[C@H](CC(C)C)N[C@@H](c1ccccc1)C(F)(F)F [Compound 53],3.16 to 31.6
20,CC[C@@H](CNc1ccc(N2CCCC2=O)cc1)NC(=O)[C@H](CC(C)C)N[C@@H](c1ccc(OC)nc1)C(F)(F)F [Compound 54],3.16 to 31.6
21,CCOC(=O)C1CCN(c2ccc(NC[C@H](CC)NC(=O)[C@H](CC(C)(C)F)N[C@@H](c3ccccc3)C(F)(F)F)cc2)CC1 [Compound 55],≤ 3.16
22,CC[C@@H](CNc1ccc(N2CCO[C@@H](C(=O)OC)C2)cc1)NC(=O)[C@H](CC(C)C)N[C@@H](c1ccccc1)C(F)(F)F [Compound 56],≤ 3.16
23,CC[C@@H](CNc1ccc(OC)cc1OC)NC(=O)[C@H](Cc1ccccc1)N[C@@H](c1ccccc1)C(F)(F)F [Compound 57],31.6 to 10000
24,CC[C@@H](CNc1ccc(N2CCOCC2)cc1)NC(=O)[C@H](Cc1ccccc1)N[C@@H](c1ccccc1)C(F)(F)F [Compound 58],31.6 to 10000
25,CC[C@@H](CNc1ccc(OC)cc1OC)NC(=O)[C@H](CC(C)(C)C)N[C@@H](c1ccccc1)C(F)(F)F [Compound 59],≤ 3.16
26,CC[C@@H](CNc1ccc(OC)cc1OC)NC(=O)[C@@H](N[C@@H](c1ccccc1)C(F)(F)F)[C@@H](C)CC [Compound 60],3.16 to 31.6

row,SMILES,IC50 [nM]
1,CC[C@@H](CNc1ccc(OC)cc1OC)NC(=O)[C@@H](N[C@@H](c1ccccc1)C(F)(F)F)C1CCCCC1 [Compound 61],31.6 to 10000
2,CC[C@@H](CNc1ccc(OC)cc1OC)NC(=O)[C@H](Cc1ccccc1)N[C@@H](c1cccs1)C(F)(F)F [Compound 62],31.6 to 10000
3,COc1ccc(NC[C@H](CC(C)C)NC(=O)[C@H](Cc2ccccc2)N[C@@H](c2ccccc2)C(F)(F)F)c(OC)c1 [Compound 63],31.6 to 10000
4,COc1ccc(NC[C@H](CC(C)C)NC(=O)[C@H](CC(C)C)N[C@@H](c2ccccc2)C(F)(F)F)c(OC)c1 [Compound 64],≤ 3.16
5,COc1ccc([C@H](N[C@@H](CC(C)C)C(=O)N[C@H](CNc2ccc(OC)cc2OC)CC(C)C)C(F)(F)F)cc1 [Compound 65],≤ 3.16
6,COc1ccc(NC[C@H](CCSC)NC(=O)[C@H](CC(C)C)N[C@@H](c2ccccc2)C(F)(F)F)c(OC)c1 [Compound 66],3.16 to 31.6
7,COc1ccc([C@H](N[C@@H](CC(C)C)C(=O)N[C@@H](CCSC)CNc2ccc(OC)cc2OC)C(F)(F)F)cc1 [Compound 67],3.16 to 31.6
8,CC(C)C[C@H](N[C@@H](c1ccccc1)C(F)(F)F)C(=O)N[C@@H](CCC(=O)OCc1ccccc1)CNc1ccc(N2CCOCC2)cc1 [Compound 68],≤ 3.16
9,CC(C)C[C@H](N[C@@H](c1ccccc1)C(F)(F)F)C(=O)N[C@H](CNc1ccc(N2CCOCC2)cc1)CC(=O)OCc1ccccc1 [Compound 69],≤ 3.16
10,COc1ccc(NC[C@H](C)NC(=O)[C@H](CC(C)C)N[C@@H](c2ccccc2)C(F)(F)F)c(OC)c1 [Compound 70],≤ 3.16
11,CC(C)C[C@H](N[C@@H](c1ccccc1)C(F)(F)F)C(=O)N[C@@H](C)CNc1ccc(N2CCOCC2)cc1 [Compound 71],≤ 3.16
12,CC(C)C[C@H](N[C@@H](c1ccc(=O)[nH]c1)C(F)(F)F)C(=O)N[C@@H](C)CNc1ccc(N2CCOCC2)cc1 [Compound 72],≤ 3.16
13,CC(C)C[C@H](N[C@@H](c1ccc(S(C)(=O)=O)cc1)C(F)(F)F)C(=O)N[C@@H](C)CNc1ccc(N2CCOCC2)cc1 [Compound 73],≤ 3.16
14,CC(C)C[C@H](N[C@@H](c1cccnc1)C(F)(F)F)C(=O)N[C@@H](C)CNc1ccc(N2CCOCC2)cc1 [Compound 74],≤ 3.16
15,COc1ccc([C@H](N[C@@H](CC(C)C)C(=O)N[C@@H](C)CNc2ccc(N3CCOCC3)cc2)C(F)(F)F)cn1 [Compound 75],≤ 3.16
16,COc1ccc(NC[C@H](C)NC(=O)[C@H](CC(C)C)N[C@@H](c2ccc(=O)[nH]c2)C(F)(F)F)c(OC)c1 [Compound 76],3.16 to 31.6
17,COc1ccc(NC[C@H](C)NC(=O)[C@H](CC(C)C)N[C@@H](c2ccc(S(C)(=O)=O)cc2)C(F)(F)F)c(OC)c1 [Compound 77],3.16 to 31.6
18,COc1ccc(NC[C@H](C)NC(=O)[C@H](CC(C)C)N[C@@H](c2cccnc2)C(F)(F)F)c(OC)c1 [Compound 78],3.16 to 31.6
19,COc1ccc(NC[C@H](C)NC(=O)[C@H](CC(C)C)N[C@@H](c2ccc(OC)nc2)C(F)(F)F)c(OC)c1 [Compound 79],3.16 to 31.6
20,COc1ccc(NC[C@H](CCS(C)(=O)=O)NC(=O)[C@H](CC(C)C)N[C@@H](c2ccccc2)C(F)(F)F)c(OC)c1 [Compound 80],3.16 to 31.6
21,COc1ccc(NC[C@H](CCS(C)(=O)=O)NC(=O)[C@H](CC(C)C)N[C@@H](c2ccc(S(C)(=O)=O)cc2)C(F)(F)F)c(OC)c1 [Compound 82],3.16 to 31.6
22,COc1ccc(NC[C@H](CCS(C)(=O)=O)NC(=O)[C@H](CC(C)C)N[C@@H](c2cccnc2)C(F)(F)F)c(OC)c1 [Compound 83],3.16 to 31.6
23,COc1ccc(NC[C@H](CCS(C)(=O)=O)NC(=O)[C@H](CC(C)C)N[C@@H](c2ccc(OC)nc2)C(F)(F)F)c(OC)c1 [Compound 84],31.6 to 10000
24,CC[C@@H](CNc1ccc(OCCCC(=O)OC)cc1OC)NC(=O)[C@H](CC(C)C)N[C@@H](c1ccccc1)C(F)(F)F [Compound 85],≤ 3.16
25,CCOC(=O)CCCCOc1ccc(NC[C@H](CC)NC(=O)[C@H](CC(C)C)N[C@@H](c2ccccc2)C(F)(F)F)c(OC)c1 [Compound 86],≤ 3.16
